Reference: patent publication US20180193659A1, “PHOTODYNAMIC THERAPY LIGHT IRRADIATING DEVICE AND LIGHT IRRADIATING METHOD” (Public University Corporation Nagoya City University, priority 2015, published 2018)
Read-outs that look alike come from different tables or passages of the source.

Assays:
[1] = test system: HaCaT cells (human skin keratinocyte cell line); settings: 1 mM 5-ALA; for PDT effect (1 - cell survival rate): 0.4 J/cm^2
Protocol: After 4 hours, the plurality of plates except for one plate were each subjected to five kinds of single-wavelength irradiation and four kinds of multiple-wavelength irradiation (specifically, two-wavelength irradiation) at respective amounts of irradiation of 0.2 J/cm^2, 0.4 J/cm^2, 0.6 J/cm^2, 0.8 J/cm^2, 1.0 J/cm^2, and 1.2 J/cm^2. Specifically, in the five kinds of single-wavelength irradiation, irradiation with each of light having a wavelength of 405 nm, light having a wavelength of 505 nm, light having a wavelength of 545 nm, light having a wavelength of 570 nm, and light having a wavelength of 635 nm was performed. The four kinds of multiple-wavelength irradiation with light in which the light having the wavelength of 405 nm and the light having the wavelength of 505 nm were combined, light in which the light having the wavelength of 405 nm and the light having the wavelength of 545 nm were combined, light in which the light having the wavelength of 405 nm and the light having the wavelength of 570 nm were combined, and light in which the light having the wavelength of 405 nm and the light having the wavelength of 635 nm were combined were performed. In the single-wavelength irradiation and the multiple-wavelength irradiation, as a light source of the light having the wavelength of 405 nm, an LED element in which the energy of light from the light source was 11 mW/cm^2 (irradiation distance: 100 mm) was used. […]
Subsequently, in the plurality of plates that had been irradiated with light and the plate that had not been irradiated with light, cultivation was performed over 18 hours. The cell survival rate was measured by an MTT assay using an XTT cell proliferation assay kit.
On the basis of the results of cell survival rate at an amount of irradiation of 0.4 J/cm^2, a therapeutic effect by a photodynamic therapy (hereinafter also referred to as “PDT effect”) was calculated by the following expression (1).
Herein, the cell survival rate reference value is a value calculated by the following expression (2). […]

[2] = test system: HaCaT cells (human skin keratinocyte cell line); test: Experimental Example 2: cell survival rate of 5-ALA-treated HaCaT cells after 635 nm irradiation under pulse width modulation; type: cell-based; settings: 1 mM 5-ALA, 12 J/cm^2, 125 kHz PWM, off time not more than 4 μs
Protocol: The irradiation was performed using a pulse width modulation control power supply (PWM power supply) with a frequency of 125 kHz capable of adjusting light using pulse width modulation at 256 modes as shown in FIG. 12. Specifically, in the condition (1), light irradiation was performed using pulse width modulation control in which the off time (t(off)) in pulse width modulation was 5.6 μs. In the condition (2), light irradiation was performed using pulse width modulation control in which the off time (t(off)) in pulse width modulation was 5.3 μs. In the condition (3), light irradiation was performed using pulse width modulation control in which the off time (t(off)) in pulse width modulation was 4.8 μs. In the condition (4), light irradiation was performed using pulse width modulation control in which the off time (t(off)) in pulse width modulation was 4.0 μs. In the condition (5), light irradiation was performed using pulse width modulation control in which the off time (t(off)) in pulse width modulation was 2.7 μs. In all the conditions (1) to (5), the pulse period (T) was 8 μs. In the condition (6), light irradiation in which the off time (t(off)) in pulse width modulation was 0 μs, that is, light irradiation that was continuous irradiation under the same condition as that in amplitude variable control was performed.

NCC(=O)CCC(=O)O [5-ALA, δ-aminolevulinic acid]
PDT effect, single-wavelength irradiation ([1]; 4 h, 405 nm compared with 505, 545, 570 and 635 nm): most excellent PDT effect | PDT effect (1 - cell survival rate) ([1]; 405 nm + 505 nm): excellent PDT effect is obtained | PDT effect (1 - cell survival rate) ([1]; 405 nm + any of 545, 570, 635 nm): sufficient PDT effect is not obtained | PDT effect under pulse width modulation versus continuous irradiation [2]: the same as that in continuous irradiation
